Two compounds from patent US7939541B2, “Intermediates and a process employing the intermediates for the preparation of (3-trifluoromethylsulfonyl)-N-[4-methyl-3-(4-pyridin-3yl-pyrimidin-2ylamino)-phenyl]-benzamide” (Natco Pharma Limited, priority 2004, dated 2011) can be followed below.

In series [1] the test system is Baf3 murine leukemia cells Wt. Nature of the series: Blast cell count in nude mice implanted with Baf3 Wt cells. The class given is in vivo. Conditions: Baf3Wt; Imatinib 10 mg/kg, AN019 20 mg/kg, AN024 20 mg/kg, oral gavage or ip from day 15; day 42. The source says:
(§1) Blood smears were obtained via the tail vein or via the femoral vein every 6th day and blast cells counted and graphically represented.
(§2) Abdominal swelling and decrease in activity was monitored daily, blood smear taken via the tail vein or the femoral vein every 6th day and H&E stained as per standard protocols. 42 days after implantation, mice were sacrificed and spleens harvested.
(§3) Blood from tail vein or the femoral vein was taken every 6th day from Baf3 cell implanted mice until day 42.
(§4) Nude mice were intraperitoneally implanted with Baf3 mutant cells (wt, T315I, M351T or E255K). […] Blood was drawn from the femoral vein or tail vein every 6th day and blast cell count determined and graphically represented.

Series [2] has as its system Baf3 murine leukemia cells T315I. The experiment in a line: Blast cell count in nude mice implanted with Baf3 T315I cells. The format is in vivo. The note with it: Baf3T315I; Imatinib 10 mg/kg, AN019 20 mg/kg, AN024 20 mg/kg, oral gavage or ip from day 15; day 42.
Excerpt: as §1, §2, §3, §4

Series [3] has as its system Baf3 murine leukemia cells M351T. The experiment in a line: Blast cell count in nude mice implanted with Baf3 M351T cells. The format is in vivo. The note with it: Baf3M351T; Imatinib 10 mg/kg, AN019 20 mg/kg, AN024 20 mg/kg, oral gavage or ip from day 15; day 42.
Excerpt: as §1, §2, §3, §4

Series [4] relates to Baf3 murine leukemia cells E255K. The experiment in a line: Blast cell count in nude mice implanted with Baf3 E255K cells. Conditions: Baf3E255K (printed E225K); Imatinib 10 mg/kg, AN019 20 mg/kg, AN024 20 mg/kg, oral gavage or ip from day 15; day 42. The format is in vivo.
Excerpt: as §1, §2, §3, §4

In series [5] the test system is K562luc cells. The experiment in a line: Determination of drug temporal penetrance (Tp). The class given is in vivo, nude mice. Conditions: daily ip from day 15 to day 35, imaged till day 45; AN019 20 mg/kg, AN024 20 mg/kg, Imatinib 10 mg/kg. The procedure: The temporal penetrance was calculated applying the following equation, […].
P=photon counts at day ‘a’, day ‘ter’, or day ‘b’ where ‘a’ is the day when drug treatment was stopped and ‘ter’ is the day when the experiment was terminated and ‘b’ is the day where P is minimum after day a but before day ‘ter’.
n=number of animals alive when P was measured.
The animals were imaged at 6 day intervals post transplantation. […] Drug treatment was stopped on day 35 and animals were imaged till day 45, and calculated as described in methods.

The test system of series [6] is ZR71 breast cancer cells. Nature of the series: In vitro angiogenic assay, ZR-71 conditioned media on human dermal endothelial cells. The format is cell-based. The note with it: ZR-71 cells, radiation status not specified. The method, then: (§5) The in vitro angiogenesis of 4910, 5310 and U87 glioma cells and MDAMB231 and ZR71 breast cancer cells in the presence of specified concentrations of compounds were determined as follows, cells (2×10^4/well) were seeded in 8-well chamber slides and were treated with various concentrations of test compounds. After a 24 h incubation period, the conditioned media was removed and added to a 4×10^4 human dermal endothelial cell (monolayer in 8-well chamber slides) and the human dermal endothelial cells were allowed to grow for 72 h. Cells were then fixed in 3.7% formaldehyde and stained with H&E and photographed.

In series [7] the test system is MDAMB231 breast cancer cells. The experiment in a line: In vitro angiogenic assay, MDA-MB-231 conditioned media on human dermal endothelial cells. The format is cell-based. The note with it: MDA-MB-231 cells. The procedure: as §5
Series [8] relates to 4910 glioma cells. The experiment in a line: In vitro angiogenic assay, 4910 conditioned media on human dermal endothelial cells. The class given is cell-based. Conditions: 4910 cells. The method, then:
as §5

Series [9] concerns AKT, ERK and Pi3k in ZR71 breast cancer cells. Nature of the series: Western blot analysis, ZR71. The format is cell-based. Conditions: 24 h. The method, then:
(§6) Western blot analysis of 4910, 5310 and U87 glioma cells and MDAMB231 and ZR71 breast cancer cells in the presence of specified concentrations of compounds were assessed as per standard protocols. Cells were treated with AN019, AN024 or Temozolomide at the specified concentrations. 24 h after treatment, cells were collected and cell lysates extracted. Equal quantities of proteins were fractionated by SDS-PAGE. The fractionated proteins were blotted on to nylon membranes and immunoprobed for AKT, ERK and Pi3k. Breast cancer cell protein isolates were additionally immunoprobed for EGFR, ErbB1, ErbB2 and ErbB3.

For series [10], the system named is AKT, ERK and Pi3k in 5310 glioma cells. Nature of the series: Western blot analysis, 5310. The format is cell-based. The note with it: for PI3k levels: 24 h. The procedure:
as §6

For series [11], the system named is pAKT and pERK in glioma and breast cancer cells. Nature of the series: Western blot analysis of pAKT and pERK, cell line not stated. Conditions: for pERK levels: both with and without radiation. The class given is cell-based. The procedure: as §6
Series [12] concerns K562 luciferase expressing cells. Nature of the series: Leukemic survival study. The class given is in vivo, nude mice. An excerpt:
K562 luciferase expressing cells were implanted intraperitoneally into nude mice; the mice were scanned using the xenogeny IVIS image station after ip injections of luciferin does determine implantations. Drug treatment was started as in previous studies day 15 after implantation. The animals were given treatment till day 42, after which drug treatment was stopped and survival of the animals determined as per the animal care regulations. […] Drug treatment was withdrawn on day 42 post implantation and survival of animals determined.

Series [13] concerns K562. The experiment in a line: ED50 and therapeutic index in leukemic mice (K562). The format is in vivo. The note with it: po, mice.
Series [14] deals with 4910 human glioma xenograft cells. The experiment in a line: Glioma radiation studies, intracranial tumours. The format is in vivo, nude mice. The procedure: Nude mice were intracranially implanted with 4910 human glioma xenograft cells (1×10^6 cells) intracranially. Ten days after implantation mice were treated with AN019, AN024 or temozolomide with or without radiation (5 Gy/week). The experiment was terminated at day 40 post implantation.

Series [15] deals with 5310 glioma cells. The experiment in a line: In vitro angiogenic assay, 5310 conditioned media on human dermal endothelial cells. The class given is cell-based. The note with it: 5310 cells. The method, then: as §5

`Cc1ccc(NC(=O)c2cc(C(F)(F)F)cc(C(F)(F)F)c2)cc1Nc1nccc(-c2cccnc2)n1` [AN019]: the “blast cell count in blood smears” value is “complete regression of leukemic blast cells” in series [1], “significant decrease in blast cell count” in [2], “significant decrease in blast cell count” in series [3] and “significant decrease in blast cell count” in series [4]. For the same compound, the “temporal penetrance (Tp)” value in series [5] amounted to 2.0. Moreover, the inhibition of angiogenesis entry is “complete inhibition of angiogenesis” in [6], “slight inhibition” in series [7] (with radiation) and “increase in angiogenic inhibition after radiation” in [8] (with radiation). Moreover, the AKT levels entry is reported as “enhanced after radiation” in [9] (ZR71, after radiation) and “decrease in AKT levels” in series [9] (ZR71, without radiation). Further, the PI3k levels result in series [9] (ZR71, with radiation) is listed as “absent”; in series [9] (ZR71, without radiation), “absent”; in series [10] (5310, after radiation treatment) it was “reappeared after radiation treatment”; in [10] (5310, without radiation), “almost undetectable”. In addition, in series [10] (5310, 24 h), the AKT expression levels result was “decrease in AKT expression levels”. Besides, the pERK levels result in series [11] is “reduced significantly”. Further, in series [12] (drug treatment withdrawn on day 42 (FIG. 6C)), the “blast cell count from blood smears after withdrawal of drug treatment” value is on record as “showed effectiveness after withdrawal of drug treatment”. Besides, the “animals showing no signs of leukemia / complete absence of leukemic symptoms” value in series [12] (of 10 animals, treatment day 15 to day 42, then withdrawn, AN024 read on day 55) came to 7 animals. For the same compound, the “mortality (day post implantation)” value in series [12] (treatment day 15 to day 42, then withdrawn) is recorded as “did not show any mortality”. Further, in series [13], the “ED50 (po) Mice” value was determined as 11.5 mg/kg. Besides, the “intracranial tumours (size, appearance)” value in series [14] (without radiation) was “tumours similar to AN024 treated animals”. Moreover, for the setting “Maximum Tolerated Dose”, the “MTD Mice” value came out at 500 mg/kg. Further, where the note is “po”, the “LD50 (po) Mice” value stood at 1133 mg/kg.

Regarding `Cn1nnc2c(C(N)=O)ncn2c1=O` [Temozolomide, reference compound], the inhibition of angiogenesis entry in series [6] is recorded as “complete inhibition of angiogenesis”; in series [7] (control condition (without radiation)) it was “only a slight inhibition”; in series [7] (with radiation), “increase in inhibition after radiation”; in series [8] (with radiation) it was “significant inhibition of angiogenesis”; in series [8] (without radiation) it was “significant inhibition of angiogenesis”; in series [15] (after radiation treatment) it was “angiogenesis was promoted”. In series [15] (control conditions (without radiation)), the inhibition of angiogenesis result is on record as “inhibition of angiogenesis was seen”. Further, the pERK levels result in series [11] was “did not show any significant change”. The pAKT levels entry in series [11] (with or without radiation) was “did not show any significant change”. For the same compound, the results for the “intracranial tumours (size, appearance)” value in [14] (with radiation (5 Gy/week)) and in [14] (without radiation) were “further regression in tumor size” and “reduction in intracranial tumours”, respectively.
